This is an account of results in US20120202690A1, “HERBICIDAL COMPOUNDS” (SYNGENTA LIMITED, priority 2009, published 2012).

Format in all cases: in vivo
Assay [1] relates to Alopecurus myosuroides (ALOMY). In words: Pre-emergence biological efficacy, glasshouse, 1000 g/ha, evaluated after 13 days (100=total damage to plant; 0=no damage to plant). The settings on record: Alopecurus myosuroides, 312 h, rate 1,000 g/ha, read-out: Percentage damage caused to weed species, pre-emergence, ALOMY. The procedure, abridged:
(§1)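 Test species are sown into pots of standard soil. Plants then grow in the glasshouse under controlled conditions (24/16° C. day/night, 14 hours light, 65% humidity) and receive water twice a day.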

Assay [2] concerns Amaranthus retroflexus (AMARE). The assay is described as above. The settings on record: Amaranthus retroflexus, 312 h, rate 1,000 g/ha, read-out: Percentage damage caused to weed species, pre-emergence, AMARE. An outline of the steps:
as §1

Assay [3] deals with Echinochloa crus-galli (ECHCG). The assay is described as above. The settings on record: Echinochloa crus-galli, 312 h, rate 1,000 g/ha, read-out: Percentage damage caused to weed species, pre-emergence, ECHCG. The procedure, abridged:
as §1

Assay [4] deals with Ipomoea hederaceae (IPOHE). Described as above. The settings on record: Ipomoea, 312 h, rate 1,000 g/ha, read-out: Percentage damage caused to weed species, pre-emergence, IPOHE. The procedure, abridged: as §1
The test system of assay [5] is Setaria faberi (SETFA). Described as above. Particulars: Setaria faberi, 312 h, rate 1,000 g/ha, read-out: Percentage damage caused to weed species, pre-emergence, SETFA. The procedure, abridged: as §1
The test system of assay [6] is Solanum nigrum (SOLNI). The description is as above. Particulars: Solanum nigrum, 312 h, rate 1,000 g/ha, read-out: Percentage damage caused to weed species, pre-emergence, SOLNI. The procedure, abridged:
as §1

Assay [7] has as its system Alopecurus myosuroides (ALOMY). In words: Post-emergence biological efficacy, glasshouse, 500 or 1000 g/ha, evaluated after 13 days (100=total damage to plant; 0=no damage to plant). Particulars: Alopecurus myosuroides, 312 h, rate 1,000 g/ha, read-out: Percentage damage caused to weed species, post-emergence, ALOMY. An outline of the steps:
(§2)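 Damage is scored on pot-grown plants, sown in standard soil and sprayed after emergence, that were held post-treatment in a glasshouse (24/16° C. day/night, 14 hours light, 65% humidity).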

In assay [8] the test system is Amaranthus retroflexus (AMARE). Described as above. The settings on record: Amaranthus retroflexus, 312 h, rate 1,000 g/ha, read-out: Percentage damage caused to weed species, post-emergence, AMARE. An outline of the steps:
as §2

The test system of assay [9] is Echinochloa crusgaffi (ECHCG). The assay is described as above. The settings on record: Echinochloa, 312 h, rate 1,000 g/ha, read-out: Percentage damage caused to weed species, post-emergence, ECHCG. The procedure, abridged:
as §2

Assay [10] has as its system Ipomoea hederaceae (IPOHE). The assay is described as above. Particulars: Ipomoea, 312 h, rate 1,000 g/ha, read-out: Percentage damage caused to weed species, post-emergence, IPOHE. An outline of the steps:
as §2

The test system of assay [11] is Setaria faberi (SETFA). The assay is described as above. Particulars: Setaria faberi, 312 h, rate 1,000 g/ha, read-out: Percentage damage caused to weed species, post-emergence, SETFA. An outline of the steps: as §2
Assay [12] has as its system Solanum nigrum (SOLNI). The description is as above. Particulars: Solanum nigrum, 312 h, rate 1,000 g/ha, read-out: Percentage damage caused to weed species, post-emergence, SOLNI. An outline of the steps:
as §2

With `Cc1cc2c(C(=O)O)nc(-c3ccc(Cl)c(F)c3)nc2n1Cc1ccco1` [Compound 11-21, 4-Carboxy-2-(4-chloro-3-fluorophenyl)-7-(2-furanyl-methyl)-6-methyl-7H-pyrrolo[2,3-d]pyrimidine], the pest or weed control at 1000 g/ha (in assay [1]; in assay [2]; in assay [3]; in assay [4]; with Setaria faberi (SETFA) [5]; in the assay with Solanum nigrum (SOLNI) [6]) was 0% in each case. Moreover, the pest or weed control at 1000 g/ha stood at 0% in [7]; 0% in assay [8]; 0% in [9]; 20% in assay [10]; 0% in the assay on Setaria faberi (SETFA) [11]; 50% with Solanum nigrum (SOLNI) [12].

On to `COC(=O)c1nc(-c2ccc(Cl)c(OC)c2F)nc2c1cc(C)n2Cc1ccco1` [Compound 11-66, 2-(4-Chloro-2-fluoro-3-methoxyphenyl)-7-(2-furanylmethyl)-4-methoxycarbonyl-6-methyl-7H-pyrrolo[2,3-d]pyrimidine], for which the pest or weed control at 1000 g/ha (in [1]; in assay [2]; in [3]; in assay [4]; in the assay on Setaria faberi (SETFA) [5]; in the assay on Solanum nigrum (SOLNI) [6]) was 0% in each case. The pest or weed control at 1000 g/ha in [7] worked out at 10%; in assay [8], 20%; in [9] it was 20%; in assay [10], 30%; with Setaria faberi (SETFA) [11] it was 10%; with Solanum nigrum (SOLNI) [12], 50%.

Take `COC(=O)c1nc(Cl)nc2c1cc(C)n2Cc1ccco1` [Compound 11-126, 2-chloro-7-(2-furanylmethyl)-4-methoxycarbonyl-6-methyl-7H-pyrrolo[2,3-d]pyrimidine]: the pest or weed control at 1000 g/ha (in assay [1]; in assay [2]; in [3]; in assay [4]; in the assay with Setaria faberi (SETFA) [5]; in the assay on Solanum nigrum (SOLNI) [6]) was 0% throughout. Besides, the pest or weed control at 1000 g/ha in assay [7] turned out to be 0%; in assay [8] it was 0%; in assay [9], 0%; in assay [10], 0%; in the assay with Setaria faberi (SETFA) [11], 0%; with Solanum nigrum (SOLNI) [12] it was 20%.

As for `COc1c(Cl)ccc(-c2nc(C(=O)O)c3c(C)cn(Cc4ccc(C(F)(F)F)o4)c3n2)c1F` [Compound 12-63, 4-Carboxy-2-(4-chloro-2-fluoro-3-methoxyphenyl)-7-(5-trifluoromethyl-furan-2-yl-methyl)-5-methyl-7H-pyrrolo[2,3-d]pyrimidine], the pest or weed control at 1000 g/ha was 0% in [1]; 60% in [2]; 0% in [3]; 10% in assay [4]; 20% in the assay with Setaria faberi (SETFA) [5]; 0% with Solanum nigrum (SOLNI) [6]. The pest or weed control at 1000 g/ha in assay [7] is 0%; in assay [8], 30%; in assay [9], 0%; in assay [10], 50%; with Setaria faberi (SETFA) [11], 0%; in the assay on Solanum nigrum (SOLNI) [12] it was 70%.

On to `COC(=O)c1nc(-c2ccc(Cl)c(OC)c2F)nc2c1c(C)cn2Cc1ccc(C(F)(F)F)o1` [Compound 12-64], for which the pest or weed control at 1000 g/ha (in assay [1]; in assay [2]; in [3]; in assay [4]; in the assay on Setaria faberi (SETFA) [5]; in the assay on Solanum nigrum (SOLNI) [6]) was 0% in each case. The pest or weed control at 1000 g/ha was determined as 10% in [7]; 20% in assay [8]; 10% in assay [9]; 50% in [10]; 30% in the assay with Setaria faberi (SETFA) [11]; 30% in the assay on Solanum nigrum (SOLNI) [12].

For `O=C(O)c1nc(-c2ccc(Cl)c(F)c2)nc2c1ccn2Cc1ncccc1Cl` [Compound 14-17, 4-Carboxy-2-(4-chloro-3-fluorophenyl)-7-(3-chloropyrid-2-yl-methyl)-7H-pyrrolo[2,3-d]pyrimidine], the pest or weed control at 1000 g/ha (in assay [1]; in assay [2]; in [3]; in assay [4]; with Setaria faberi (SETFA) [5]; with Solanum nigrum (SOLNI) [6]) was 0% in each case. Besides, the pest or weed control at 1000 g/ha came out at 0% in assay [7]; 0% in assay [8]; 0% in assay [9]; 10% in assay [10]; 0% with Setaria faberi (SETFA) [11]; 40% in the assay on Solanum nigrum (SOLNI) [12].

For the compound `COC(=O)c1nc(-c2ccc(Cl)c(OC)c2F)nc2c1c(C)cn2C(=O)C(C)(C)C` [Compound 16-64, 7-t-Butylcarbonyl-2-(4-chloro-2-fluoro-3-methoxyphenyl)-4-methoxycarbonyl-5-methyl-7H-pyrrolo[2,3-d]pyrimidine], the pest or weed control at 1000 g/ha (in [1]; in [2]; in assay [3]; in assay [4]; with Setaria faberi (SETFA) [5]; in the assay on Solanum nigrum (SOLNI) [6]) was 0% in each case. Besides, the pest or weed control at 1000 g/ha in assay [7] was determined as 0%; in assay [8], 10%; in assay [9], 0%; in [10], 70%; in the assay with Setaria faberi (SETFA) [11], 0%; in the assay with Solanum nigrum (SOLNI) [12], 60%.

In the case of `COC(=O)c1nc(-c2ccc(Cl)c(OC)c2F)nc2c1c(C)cn2C(=O)OC` [Compound 17-64, 2-(4-Chloro-2-fluoro-3-methoxyphenyl)-4,7-di(methoxycarbonyl)-5-methyl-7H-pyrrolo[2,3-d]pyrimidine], the pest or weed control at 1000 g/ha (in [1]; in assay [2]; in assay [3]; in assay [4]; in the assay with Setaria faberi (SETFA) [5]; in the assay on Solanum nigrum (SOLNI) [6]) was 0% each time. Also, the pest or weed control at 1000 g/ha in assay [7] is 0%; in [8], 0%; in assay [9], 0%; in assay [10], 0%; with Setaria faberi (SETFA) [11] it was 0%; with Solanum nigrum (SOLNI) [12], 20%.
